Here are results for 9 compounds from ChEMBL document CHEMBL1135811, “4-(Phenylsulfonyl)piperidines: novel, selective, and bioavailable 5-HT(2A) receptor antagonists” (J Med Chem, 2002).

Common to all, as to format: ADME, organism-based
The nature of series [1]: Area under concentration-time curve for 0-4 hr after oral dose of 10 mg/kg. The arrangement: time < 4 hr, dose 10 mg/kg, route oral. Conditions: in vivo.
Series [2] in a line: Mean residence time following intravenous dosing. To be noted: in vivo.
Series [3] can be described thus: Maximum blood concentration after oral dose of 10 mg/kg. Set-up: dose 10 mg/kg, route oral.
Series [4] is described as follows: Bioavailability. Conditions: eutheria, in vivo.
Series [5] can be described thus: Area under concentration-time curve for 0-4 hr after oral dose of 2.0 mg/kg. Set-up: time < 4 hr, dose 2 mg/kg, route oral. To be noted: in vivo.
Series [6] is described as follows: Maximum blood concentration after oral dose of 2.0 mg/kg. Set-up: dose 2 mg/kg, route oral.
The nature of series [7]: (§1) Area under concentration-time curve for 0-4 hr after oral dose of […]. The arrangement: time < 4 hr, dose 1.5 mg/kg, route oral. To be noted: in vivo.
Series [8] is described as follows: (§2) Maximum blood concentration after oral dose of […]. The arrangement: dose 1.5 mg/kg, route oral.
Series [9] in a line: Area under concentration-time curve for 0-4 hr after oral dose 1 mg/kg. The arrangement: time < 4 hr, dose 1 mg/kg, route oral. To be noted: in vivo.
A short description of series [10]: Maximum blood concentration after oral dose 1 mg/kg. The arrangement: dose 1 mg/kg, route oral.
Series [11] in a line: as §1. Set-up: time < 4 hr, dose 1.2 mg/kg, route oral. To be noted: in vivo.
A short description of series [12]: as §2. Set-up: dose 1.2 mg/kg, route oral.

Consider `O=S(=O)(c1ccccc1)C1CCN(CCc2ccc(F)cc2F)CC1`, for which the AUC(0-t) (usually exposure summed from dosing to a finite time, without extrapolation to infinity) at 4 h in series [1] came out at 100 ng·h/mL. Moreover, in [2], the MRT – broadly, a mean duration of stay, worked out from the concentration-time curve – came to 1 h. Further, the highest concentration (Cmax) (usually the highest concentration seen after dosing) in [3] is 23 ng/mL. In series [4], the bioavailability (usually the share of a dose that reaches the circulation, judged against a reference dose that is usually intravenous) worked out at 2%.

`OC1c2ccccc2CCC12CCN(CCc1ccccc1)CC2` (stereo unspecified) gave an AUC(0-t) at 4 h in series [5] of 3 ng·h/mL. The highest level in series [6] (Cmax) was 2 ng/mL.

Consider `COc1ccc2c(c1)CCC1(CCN(CCc3ccc(F)cc3F)CC1)O2`, for which the AUC(0-t) at 4 h in series [7] amounted to 4 ng·h/mL. In series [2], the MRT came out at 1.5 h. In [8], this compound came in with a Cmax of 2 ng/mL.

In series [9], `NC(=O)c1cccc(S(=O)(=O)C2CCN(CCc3ccc(F)cc3F)CC2)c1` had an exposure AUC(0-t) at 4 h of 115 ng·h/mL. Besides, in series [10], the maximum concentration (Cmax) came to 38 ng/mL. This compound returned an MRT in series [2] of 1.1 h. Also, in series [4], the bioavailability was 24%.

In [5], `O=S1(=O)c2ccccc2CCC12CCN(CCc1ccc(F)cc1F)CC2` registered an exposure AUC(0-t) at 4 h of 1 ng·h/mL. Further, the maximum concentration (Cmax) in [6] is 1 ng/mL.

For `O=C(CN1CCC(S(=O)(=O)c2ccccc2)CC1)c1ccc(F)cc1`, in series [9], the AUC(0-t) at 4 h was 171 ng·h/mL. Besides, the Cmax in [10] was 140 ng/mL. Besides, the mean residence time MRT in [2] turned out to be 0.7 h. In [4], this compound displayed a bioavailability of 30%.

`NC(=O)c1ccc(S(=O)(=O)C2CCN(CCc3ccc(F)cc3F)CC2)cc1`: the AUC(0-t) at 4 h in series [9] was 199 ng·h/mL. For the same compound, in [10], the highest concentration (Cmax) was determined as 70 ng/mL. The MRT in series [2] came out at 0.9 h. Also, the bioavailability in series [4] was 22%.

In series [9], `N#Cc1ccc(S(=O)(=O)C2CCN(CCc3ccc(F)cc3F)CC2)cc1` displayed an AUC(0-t) at 4 h of 177 ng·h/mL. Also, the Cmax in series [10] is 30 ng/mL. The mean residence time MRT in series [2] was 2.3 h. Also, in [4], the bioavailability is 23%.

With `COc1cccc([C@H](O)C2CCN(CCc3ccc(F)cc3)CC2)c1OC` [VOLINANSERIN], in [11], the AUC(0-t) at 4 h worked out at 8 ng·h/mL. The peak concentration (Cmax) in series [12] is 2 ng/mL. Also, in [2], the MRT turned out to be 1 h. This compound also registered a bioavailability in series [4] of 3%.
